Assay results: ChEMBL document CHEMBL1132526, “Spiro-imidazo[1,2-a]indeno[1,2-e]pyrazine-4-one derivatives are mixed AMPA and NMDA glycine-site antagonists active in vivo” (Bioorg Med Chem Lett, 1999)
pIC50: −log10 of the molar value.

Experiments:
[1] = test system: Mus musculus; assay: In vivo activity determined by Maximum electroshock induced seizures (MES) assay in mice after ip administration; assay type: functional
[2] = target: Glutamate NMDA receptor; assay: In vitro binding affinity towards glycine modulatory site on the NMDA receptors using [3H]DCKA as radioligand in rat cortical membrane preparations; assay type: cell membranes
[3] = target: T1, Glutamate receptor ionotropic, AMPA (Rattus norvegicus, UniProt P19490+P19491+P19492+P19493); assay: In vitro binding affinity towards ionotropic glutamate receptor AMPA using [3H]AMPA as radioligand in rat cortical membrane preparations; assay type: cell membranes
[4] = test system: Mus musculus; assay: In vivo activity determined by Maximum electroshock induced seizures (MES) assay in mice after iv administration; assay type: functional
[5] = target: T1, Glutamate receptor ionotropic, AMPA; assay: In vitro binding affinity towards Ionotropic glutamate receptor AMPA using [3H]AMPA as radioligand in rat cortical membrane preparations; assay type: cell membranes
[6] = Mus musculus, ip, read-out: ED50

| Compound | pIC50 [2] | pIC50 [3] | pIC50 [5] | ED50 [1, 6] | ED50 [1] | ED50 ([4]; Mus musculus, iv, read-out: ED50) | ED50 [4] |
| --- | --- | --- | --- | --- | --- | --- | --- |
| NCC(=O)N1CCCC12c1ccccc1-c1nc(O)c3nccn3c12 (configuration not stated) | 5.55 | 6.08 |  | 70 mg/kg |  |  |  |
| CC1(C)c2ccccc2-c2nc(O)c3nccn3c21 | 6.00 | 5.36 |  |  |  |  |  |
| O=C(O)CCC(=O)N1CCCC12c1ccccc1-c1nc(O)c3nccn3c12 (configuration not stated) | 5.00 | 6.44 |  | 10 mg/kg |  |  |  |
| CN1CCCC12c1ccccc1-c1nc(O)c3nccn3c12 (stereo in doubt; (+)-3e) | 6.76 | 7.07 |  |  | 17 mg/kg | 7 mg/kg |  |
| O=C(Nc1ccccc1)N1CCCC12c1ccccc1-c1nc(O)c3nccn3c12 (configuration not stated) | 6.89 | 5.15 |  |  |  |  |  |
| Oc1nc2c(n3ccnc13)C1(CCNC1)c1ccccc1-2 (configuration not stated) | 6.19 | 6.70 |  | > 80 mg/kg |  |  |  |
| O=c1[nH]c2cc(-n3ccnc3)c([N+](=O)[O-])cc2[nH]c1=O [YM-90K] | 4.98 | 6.46 |  | 12 mg/kg |  |  |  |
| CC(C)(C)OC(=O)N1CCCC12c1ccccc1-c1nc(O)c3nccn3c12 (configuration not stated) | 6.22 | < 5.00 |  |  |  |  |  |
| CCN1CCCC12c1ccccc1-c1nc(O)c3nccn3c12 (configuration not stated) | 6.28 | 6.21 |  | 54 mg/kg |  |  |  |
| CNC1(C)c2ccccc2-c2nc(O)c3nccn3c21 (configuration not stated) | 5.56 | 5.47 |  |  |  |  |  |
| Oc1nc2c(n3ccnc13)C1(CCCC1)c1ccccc1-2 | 5.85 | 5.80 |  |  |  |  |  |
| CCCC1(N)c2ccccc2-c2nc(O)c3nccn3c21 (configuration not stated) | 6.28 | 6.38 |  | 80 mg/kg |  |  |  |
| CNC(=O)N1CCCC12c1ccccc1-c1nc(O)c3nccn3c12 (configuration not stated) | 5.77 | 5.40 |  |  |  |  |  |
| Oc1nc2c(n3ccnc13)Cc1ccccc1-2 | 5.52 | 6.12 |  | 62 mg/kg |  |  |  |
| Oc1nc2c(n3ccnc13)C1(CCNCC1)c1ccccc1-2 | 5.70 | 6.42 |  |  |  |  |  |
| CCCCC1(N)c2ccccc2-c2nc(O)c3nccn3c21 (configuration not stated) | 6.52 | 5.77 |  |  |  |  |  |
| CN1CCCC12c1ccccc1-c1nc(O)c3nccn3c12 (single isomer, unassigned; (-)) | 5.94 | 5.31 |  |  | 80 mg/kg |  |  |
| CN1CCCC12c1ccccc1-c1nc(O)c3nccn3c12 (stereo in doubt; 3e) | 6.38 | 6.70 |  |  | 31 mg/kg |  | 10 mg/kg |
| Oc1nc2c(n3ccnc13)C1(CCCCN1)c1ccccc1-2 (configuration not stated) | 5.93 | 6.41 |  | 45 mg/kg |  |  |  |

Further lines, with some results ahead:

| pIC50 [2] | pIC50 [3] | pIC50 [5] | Compound | ED50 [1, 6] | ED50 [1] | ED50 ([4]; Mus musculus, iv, read-out: ED50) | ED50 [4] |
| --- | --- | --- | --- | --- | --- | --- | --- |
| 5.85 | 5.60 |  | CC1(N)c2ccccc2-c2nc(O)c3nccn3c21 (configuration not stated) | 30 mg/kg |  |  |  |
| 6.33 | 5.37 |  | CCCN1CCCC12c1ccccc1-c1nc(O)c3nccn3c12 (configuration not stated) |  |  |  |  |
| 6.22 | 5.64 |  | Oc1nc2c(n3ccnc13)C1(CC1)c1ccccc1-2 |  |  |  |  |
| 6.55 |  | 6.60 | Oc1nc2c(n3ccnc13)C1(CCCN1)c1ccccc1-2 (configuration not stated) | 80 mg/kg |  |  |  |
| < 5.00 | 6.22 |  | O=C(O)[C@@H]1C[C@H]2C[C@@H](CCc3nn[nH]n3)CC[C@H]2CN1 [TEZAMPANEL ANHYDROUS] | 4 mg/kg |  |  |  |
| 6.05 | 5.00 |  | O=C(NCc1ccccc1)N1CCCC12c1ccccc1-c1nc(O)c3nccn3c12 (configuration not stated) |  |  |  |  |
| 5.89 | 5.00 |  | Oc1nc2c(n3ccnc13)C1(CCCN1Cc1ccccc1)c1ccccc1-2 (configuration not stated) |  |  |  |  |
| 5.77 | 5.82 |  | O=C1CCC2(N1)c1ccccc1-c1nc(O)c3nccn3c12 (configuration not stated) |  |  |  |  |
| 6.25 | 6.21 |  | CC(=O)N1CCCC12c1ccccc1-c1nc(O)c3nccn3c12 (configuration not stated) |  |  |  |  |
